According to patent US10023565B2, “N,N′ substituted piperidinamine compounds, and preparation method and usage thereof” (Institute of Pharmacology and Toxicology Academy of …, priority 2013, dated 2018):

Legend:
Hsp70 = target: T1, Hsp70 (Homo sapiens, UniProt P0DMV8); assay: Measurement of affinity between compounds and Hsp70 (SPR, BIACORE T100); type: binding
T1 construct: purchased Enzo Life Sciences ADI-ESP-550-D
Procedure: Instrument for measuring the affinity between Example compounds and Hsp70 is BIACORE T100 Biomolecular Interaction Analysis (GE, USA), and the positive control drug is VER-155008 that is well-recognized as Hsp70 inhibitor now, and, on the basis of the measured results, according to binding characteristics between the compounds and protein, the binding constant (equilibrium dissociation constant KD) between drugs and protein is calculated by selecting steady state model with the formula: Conc*Rmax/[conc+KD]+offset.
1. Instrument: BIACORE T100 Biomolecular Interaction Analysis (GE, USA)
2. Reagents: PBS Buffer (×10), P20, CM5 chip (GE, USA), Hsp70 (human, ADI-ESP-550-D), manufactured by Enzo Life Sciences.
30 mM mother liquor of the compound was formulated with DMSO, which was diluted to 2 mM application solution with DMSO before use. 5 μl of the application solution was taken and diluted with 95 μl 1.05×PBS to 100 μM, and then diluted in turn with PBS containing 5% DMSO to […]. PBS containing 5% DMSO was used as solvent control.
Hsp70 protein was diluted with 10 mmol/L sodium acetate buffer solution (pH 5.0) to 30 μg/ml, and coupled directly on a hydrophilic carboxylmethyl dextran matrix sensor chip M5 through normalized primary amine coupling reaction, RU=11209, and then the chip was balanced for 1-2 h with PBS Buffer at […].
At a flow rate of […], with PBS containing 5% DMSO as mobile phase, at 25° C., the compound was introduced in the sequence of 0.003, 0.01, 0.03, 0.1, 0.3, 1, 3 and 10 μM, with binding time of 90 seconds, and dissociation time of 120 seconds.
According to binding characteristics between the compounds and protein, the binding constant (equilibrium dissociation constant KD) between drugs and protein was calculated by selecting steady state model with the formula: Conc*Rmax/[conc+KD]+offset.

mice = assay: Acute toxicity experiment with single intragastric administration to mice; type: in vivo; conditions: for Quantity of animals (survival/death): 14 d observation
Procedure: Acute toxicity experiment with single intragastric administration to mice of the compound of Example 36 according to the following method
(2) Preparation of test sample: a suitable amount of sample was weighed, and suspended in 0.5% CMC-Na, followed by vortex vibration till uniform. The resulting suspension was fully vibrated before administration.
According to the results of pre-experiment, experiment was conducted using Fixed-dose procedure. 70 mice were randomly divided into 7 groups, 10 mice each group, male and female in half. The administration doses were respectively: 1555, 1296, 1080, 900, 750, 625 and 520 mg/kg, and observation of the animals after administration continued for 14 days.
Observation was conducted once 5 min, 10 min, 20 min, 30 min, 1 h, 2 h, 4 h, 6 h, 8 h, 12 h, 18 h, 1 d, 2 d, 3 d, 7 d and 14 d respectively after administration, to record the animal death and toxic response.
LD50 was calculated by statistical analysis using SAS software.
2. Calculation of LD50 Using Bliss Method

T1 sequence (P0DMV8 whole entry): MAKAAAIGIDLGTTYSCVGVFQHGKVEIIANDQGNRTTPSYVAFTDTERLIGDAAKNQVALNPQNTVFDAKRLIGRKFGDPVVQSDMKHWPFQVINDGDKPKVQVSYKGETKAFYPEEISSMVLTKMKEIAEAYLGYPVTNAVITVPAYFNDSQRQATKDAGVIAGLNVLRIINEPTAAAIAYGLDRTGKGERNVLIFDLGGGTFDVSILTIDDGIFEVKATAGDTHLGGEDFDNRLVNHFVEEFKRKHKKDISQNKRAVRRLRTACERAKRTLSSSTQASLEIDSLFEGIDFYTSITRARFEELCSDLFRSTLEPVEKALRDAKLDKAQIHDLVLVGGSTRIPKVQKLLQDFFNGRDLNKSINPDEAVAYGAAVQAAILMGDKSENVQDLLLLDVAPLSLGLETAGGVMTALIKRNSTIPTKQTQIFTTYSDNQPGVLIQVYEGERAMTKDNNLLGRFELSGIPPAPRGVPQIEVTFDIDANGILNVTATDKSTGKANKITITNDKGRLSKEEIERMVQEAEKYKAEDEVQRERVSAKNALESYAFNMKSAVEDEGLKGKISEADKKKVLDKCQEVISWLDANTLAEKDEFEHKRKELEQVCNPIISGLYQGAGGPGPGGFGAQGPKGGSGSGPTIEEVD

CSc1nccc(N2CCC(N(C)Cc3ccc(C#N)cc3)CC2)n1 [Example 36, N-methyl-N-(4-cyanobenzyl)-N-[1-(2-methylthiopyrimidin-4-yl)piperidin-4-yl]amine]
KD compared with positive control drug VER-155008 (Hsp70): KD values equivalent to that of the positive control drug VER-155008 | Kd (Hsp70; steady state model, 25° C., read-out: KD (binding constant between the compounds and Hsp70)): 246 nM | Quantity of animals (survival/death) (mice; 520 mg/kg, Female): 5/0 | Quantity of animals (survival/death) (mice; 520 mg/kg, Male): 5/0 | Quantity of animals (survival/death) (mice; 625 mg/kg, Female): 5/0 | Quantity of animals (survival/death) (mice; 625 mg/kg, Male): 4/1 | Quantity of animals (survival/death) (mice; 750 mg/kg, Female): 2/3 | Quantity of animals (survival/death) (mice; 750 mg/kg, Male): 4/1 | Quantity of animals (survival/death) (mice; 900 mg/kg, Female): 2/3 | Quantity of animals (survival/death) (mice; 900 mg/kg, Male): 3/2 | Quantity of animals (survival/death) (mice; 1080 mg/kg, Female): 2/3 | Quantity of animals (survival/death) (mice; 1080 mg/kg, Male): 0/5 | Quantity of animals (survival/death) (mice; 1296 mg/kg, Female): 0/5 | Quantity of animals (survival/death) (mice; 1296 mg/kg, Male): 1/4 | first animal death, time after administration (mice; 1555 mg/kg dose group): 5 min | Quantity of animals (survival/death) (mice; 1555 mg/kg, Female): 0/5 | Quantity of animals (survival/death) (mice; 1555 mg/kg, Male): 0/5 | gross anatomical examination (mice; animals dead during or killed at end of the experiment): No obvious abnormality was found | survival of the dose group (mice; mouse, in vivo): all survived | clinical manifestations of animal poisoning (mice; single intragastric administration, 520-1555 mg/kg): muscle tremors, convulsions, eye closed, curled up into a ball, erected hair, reduced activity, loss of appetite | LD50 and 95% confidence limit (mice; single intragastric administration, mice, Bliss method, SAS): 869.0 (776.5-969.4) mg/kg
